Where two headings read alike, the source gives them in different places.
Key:
[1] = test system: Sphaerotheca fuliginea; assay: Example L: in vivo test on Sphaerotheca fuliginea (powdery mildew on cucumber/protective); settings: Podosphaera fuliginea, 168 h, cucumber, protective, assessment 7 days after inoculation, read-out: % Wirkungsgrad
Method: (§1) Solvent: 49 parts by weight N,N-dimethylformamide Emulsifier: 1 part by weight alkylaryl polyglycol ethers For the preparation of a suitable active substance preparation, 1 part by weight of active substance is mixed with the stated quantities of solvent and emulsifier and the concentrate is diluted to the desired concentration with water. For the testing for protective activity, young cucumber plants are sprayed with the active substance preparation at the stated application dosage. One day after the treatment, the plants are inoculated with a spore suspension of Sphaerotheca fuliginea. Next, the plants are placed in a greenhouse at 70% relative atmospheric humidity and a temperature of 23° C. 7 days after the inoculation, the assessment takes place.

[2] = test system: Alternaria solani; assay: Example M: in vivo test on Alternaria solani (leaf blotch disease/tomato/protective); settings: 168 h, tomato, protective, 500 ppm active substance, assessed 7 days after inoculation, read-out: % Wirkungsgrad (activity level)
Method: as §1, with “tomato” for “cucumber”, “One day after the treatment, the plants are inoculated with a spore suspension of Sphaerotheca fuliginea. Next, the plants are placed in a greenhouse at 70% relative atmospheric humidity and a temperature of 23° C.” left out

[3] = physchem
[4] = test system: Fusarium graminearum; assay: microbe, parasite or virus in culture; type: cell-based
[5] = LogPA (logP of the stated pure compound or, in a mixture, of the main isomer, 1-substituted 3-aryl-1H-pyrazole)
[6] = 72 h, read-out: % Inhibition des Pilzwachstums bei 50 μM
[7] = 168 h, read-out: % Inhibition der DON/AcDON produktion bei 50 μM

Structure (SMILES)	pest or weed control at 500 ppm [1] [%]	pest or weed control at 500 ppm [2] [%]	chromatographic logP ([3]; LogPA)	chromatographic logP [3, 5]	inhibition at 50 µM [4, 6] [%]	inhibition at 50 µM [4, 7] [%]
CC(C)C(=O)Nc1cc(-c2cn(Cc3ccccc3F)nc2-c2ccc(F)cc2)ccn1 [Compound 256]	92	94	3.03			
CC(C)C(=O)Nc1cc(-c2cn(C)nc2-c2ccc(F)cc2)ccn1 [Compound 298]	100	80	1.83			
Cc1cn(-c2cc(-c3cn(C(C)C)nc3-c3ccc(F)cc3)ccn2)cn1 [Compound 283]	78	95	2.05			
CC(C)Cn1cc(-c2ccnc(NC(=O)CC3CC3)c2)c(-c2ccc(F)cc2)n1 [Compound 158]	97	94		3.03		
Cn1cc(-c2ccnc(NC(=O)CC3CC3)c2)c(-c2ccc(F)cc2)n1 [Compound 299]	84	100	1.98			
CC(C)n1cc(-c2ccnc(NCc3ccccc3)n2)c(-c2ccc(F)cc2)n1 [Compound 369]	88	90	3.31			
CCC(=O)Nc1cc(-c2cn(C(C(=O)OC)C(C)C)nc2-c2ccc(F)cc2)ccn1 (centres unmarked) [Compound 274]	94	95	2.67			
CC(C)Nc1nccc(-c2cn(C(C)C)nc2-c2ccc(F)cc2)n1 [Compound 371]	94	95	2.92			
CCn1cc(-c2ccnc(NC(=O)C(C)C)c2)c(-c2ccc(F)cc2)n1 [Compound 290]	100	100	2.14			
CCOCCn1cc(-c2ccnc(NC(=O)COC)c2)c(-c2ccc(F)cc2)n1 [Compound 327]		95	2.38		105	100
CC(C)C(=O)Nc1cc(-c2c(-c3ccc(F)cc3O)nn(C)c2OC(F)F)ccn1 [Compound 257]		94	2.44		0	94
CC(=O)Nc1cc(-c2cn(C)nc2-c2ccc(F)cc2)ccn1 [Compound 350]	94	95	1.32			
COC(=O)C(C(C)C)n1cc(-c2ccnc(NC(=O)C(C)C)c2)c(-c2ccc(F)cc2)n1 (centres unmarked) [Compound 277]	94	100	3.05			
CC(C)Cn1cc(-c2ccncc2)c(-c2ccc(F)c(C#N)c2)n1 [Compound 154]				1.65	0	93
O=C(CC1CC1)Nc1cc(-c2cn(Cc3ccccc3F)nc2-c2ccc(F)cc2)ccn1 [Compound 253]	92	94	3.17			
COCC(=O)Nc1cc(-c2cn(C(C)CC#N)nc2-c2ccc(F)cc2)ccn1 (centres unmarked) [Compound 313]	98	95	2.17			
CCn1cc(-c2ccnc(NC(=O)CC3CCCC3)c2)c(-c2ccc(F)cc2)n1 [Compound 338]	91	80	3.87			
CC(C)C(=O)Cn1cc(-c2ccncc2)c(-c2ccc(F)cc2)n1 [Compound 178]	75	94	1.37			
CC(C)Cn1cc(-c2ccnc(NC(=O)C3CC3)c2)c(-c2ccc(F)c(C#N)c2)n1 [Compound 261]			2.77		39	99
CC(c1ccccc1F)n1cc(-c2ccnc(NC(=O)CC3CC3)c2)c(-c2ccc(F)cc2)n1 (centres unmarked) [Compound 250]	84	94	3.54			
CC(C)C(=O)Nc1cc(-c2cn(C3CC3)nc2-c2ccc(F)cc2)ccn1 [Compound 322]	95	95	2.32			
CCC(=O)Nc1cc(-c2cn(C(C)C3CC3)nc2-c2ccc(F)cc2)ccn1 (centres unmarked) [Compound 301]	95	95	2.54			
CCn1cc(-c2ccnc(NC(C)=O)c2)c(-c2ccc(F)cc2)n1 [Compound 342]	94	95	1.57			

Structure (SMILES)	pest or weed control at 500 ppm [1] [%]	pest or weed control at 500 ppm [2] [%]	chromatographic logP ([3]; LogPA)	chromatographic logP [3, 5]	inhibition at 50 µM [4, 6] [%]	inhibition at 50 µM [4, 7] [%]
CC(C)C(=O)Nc1cc(-c2cn(CC3OCCO3)nc2-c2ccc(F)cc2)ccn1 [Compound 276]	99	95	1.99			
Cn1cc(-c2ccnc(NC(=O)C3CCC3)c2)c(-c2ccc(F)cc2)n1 [Compound 349]	95	80	1.93			
CC(C)Cn1cc(-c2ccnc(NC3COC3)n2)c(-c2ccc(F)cc2)n1 [Compound 279]	100	70	2.35			
CC(C)C(=O)Nc1cc(-c2cn(C(C)CC#N)nc2-c2ccc(F)cc2)ccn1 (centres unmarked) [Compound 314]	100	100	1.29			
CC(C)Cn1cc(-c2ccncc2-c2ccc(F)cc2)c(-c2ccc(F)cc2)n1 [Compound 228]	75	70	2.96			
Cn1cc(-c2ccnc(NC(=O)c3ccccc3)c2)c(-c2ccc(F)cc2)n1 [Compound 346]	95		2.42			
CCC(=O)Nc1cc(-c2cn(CCSC)nc2-c2ccc(F)cc2)ccn1 [Compound 300]	90	80	2.12			
CCC(=O)Nc1cc(-c2cn(CC3OCCO3)nc2-c2ccc(F)cc2)ccn1 [Compound 278]	89	95	1.59			
CCn1cc(-c2ccnc(NC(=O)[C@H](C)O)c2)c(-c2ccc(F)cc2)n1 [Compound 352]	73	95	1.83			
CC(CC#N)n1cc(-c2ccnc(NC(=O)CC3CC3)c2)c(-c2ccc(F)cc2)n1 (centres unmarked) [Compound 315]	95	95	2.28			
CC(C)n1cc(-c2ccnc(N)n2)c(-c2ccc(F)cc2)n1 [Compound 366]	94	80	1.54			
CC(C)On1cc(-c2ccncc2)c(-c2ccc(F)cc2)n1 [Compound 227]		95	1.58		100	100
O=C1OCCC1n1cc(-c2ccncc2)c(-c2ccc(F)cc2)n1 (centres unmarked) [Compound 142]		94		0.95	0	89
CCn1cc(-c2ccnc(NC(=O)CCCC(=O)OC)c2)c(-c2ccc(F)cc2)n1 [Compound 331]	94		2.02			
COCC(=O)Nc1cc(-c2cn(Cc3ccccc3F)nc2-c2ccc(F)cc2)ccn1 [Compound 247]		94	3.09		96	99
O=C(Nc1cc(-c2cn(Cc3ccccc3F)nc2-c2ccc(F)cc2)ccn1)C1CC1 [Compound 262]		95	2.77		35	99
CCn1cc(-c2ccnc(NC(=O)c3snnc3C)c2)c(-c2ccc(F)cc2)n1 [Compound 335]	74		2.72			
CCC(=O)Nc1cc(-c2cn(CC(C)C)nc2-c2ccc(F)c(C#N)c2)ccn1 [Compound 230]			2.67		0	97
CC(C)Cn1cc(-c2ccnc(NC(=O)C(C)C)c2)c(-c2ccc(F)c(C#N)c2)n1 [Compound 255]			3.03		0	96
COCC(=O)Nc1cc(-c2cn(CC(C)C)nc2-c2ccc(F)c(C#N)c2)ccn1 [Compound 246]			2.98		88	99
CC(C)Cn1cc(-c2ccnc(NC(=O)CC3CC3)c2)c(-c2ccc(F)c(C#N)c2)n1 [Compound 252]			3.14		0	99
CCOC(=O)Nc1cc(-c2cn(CC(C)C)nc2-c2ccc(F)c(C#N)c2)ccn1 [Compound 265]			3.19		9	98
Cc1cc(-c2cn(C3CCCCO3)nc2-c2ccc(F)cc2)ccn1 (centres unmarked) [Compound 31]	70			1.38		
